Measurements taken from patent publication US4690938A, “Anti-hypertensive agents” (University of Miami, priority 1979, dated 1987).

How the values were obtained:
[1] = target: T1, angiotensin converting enzyme (human urinary ACE) (Homo sapiens, UniProt P12821); assay: ACE activity assay: hydrolysis of Benzoyl-GlyHisLeu by ACE purified from human urine; type: biochemical; details: Benzoyl-GlyHisLeu 1×10^-4 M, pH 8.0, 37° C, read-out: I50
T1 construct: ACE purified from human urine; from tissue; host or cells: human urine
T1 sequence (P12821 30-1232 limits assumed): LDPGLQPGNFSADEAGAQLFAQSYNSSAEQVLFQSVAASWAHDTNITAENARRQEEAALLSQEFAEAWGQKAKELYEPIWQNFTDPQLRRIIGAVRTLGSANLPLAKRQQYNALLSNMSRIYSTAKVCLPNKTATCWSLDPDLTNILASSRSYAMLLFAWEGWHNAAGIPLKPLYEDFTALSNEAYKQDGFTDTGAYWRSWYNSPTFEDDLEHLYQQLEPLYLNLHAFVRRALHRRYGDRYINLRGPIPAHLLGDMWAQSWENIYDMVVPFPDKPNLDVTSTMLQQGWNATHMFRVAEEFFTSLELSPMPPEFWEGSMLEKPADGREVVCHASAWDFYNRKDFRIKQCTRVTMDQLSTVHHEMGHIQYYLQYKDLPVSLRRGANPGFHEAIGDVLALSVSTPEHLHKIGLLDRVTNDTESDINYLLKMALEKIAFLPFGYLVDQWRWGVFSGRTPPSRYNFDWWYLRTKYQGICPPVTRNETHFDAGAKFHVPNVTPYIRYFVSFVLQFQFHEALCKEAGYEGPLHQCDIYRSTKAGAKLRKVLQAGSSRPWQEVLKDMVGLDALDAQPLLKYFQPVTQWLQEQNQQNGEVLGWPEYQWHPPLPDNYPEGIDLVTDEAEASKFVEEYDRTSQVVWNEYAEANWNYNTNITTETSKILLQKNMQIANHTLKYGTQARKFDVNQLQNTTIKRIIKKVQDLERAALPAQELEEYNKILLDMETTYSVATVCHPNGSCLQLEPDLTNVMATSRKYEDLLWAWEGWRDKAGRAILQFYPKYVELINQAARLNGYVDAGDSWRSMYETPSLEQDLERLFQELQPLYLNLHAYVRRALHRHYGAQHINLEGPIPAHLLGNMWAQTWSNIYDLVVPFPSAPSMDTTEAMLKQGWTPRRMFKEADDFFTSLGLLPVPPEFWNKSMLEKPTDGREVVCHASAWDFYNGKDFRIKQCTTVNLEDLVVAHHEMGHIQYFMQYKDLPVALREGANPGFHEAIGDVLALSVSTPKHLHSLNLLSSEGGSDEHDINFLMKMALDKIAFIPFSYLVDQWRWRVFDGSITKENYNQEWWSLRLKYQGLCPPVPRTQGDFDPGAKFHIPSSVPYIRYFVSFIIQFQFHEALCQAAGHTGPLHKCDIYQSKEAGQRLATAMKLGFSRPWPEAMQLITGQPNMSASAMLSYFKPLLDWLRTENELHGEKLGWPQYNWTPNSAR
Text: The role of ACE in the pathogenesis of hypertension has prompted a search for inhibitors of the enzyme that could act as antihypertensive drugs. See for example U.S. Pat. Nos. 3,891,616, 3,947,575, 4,052,511 and 4,053,651. […]. No. 4,046,889 to Ondetti et al., issued Sept. 6, 1977, and in scientific articles by Cushman, D. W. et al., Biochemistry 16, 5484 (1977), and by Ondetti, M. et al., Science 196, 441 (1977). […]. These factors include the source of enzyme, its purity, the substrate used and its concentration, and the composition of the assay buffer. All I50 data reported herein have been performed with the same assay system and same enzyme (human urinary ACE) and with an approximately 1/2 Km level of substrate and are therefore internally consistent. Discrepancies with data obtained by other workers may be observed. Indeed such discrepancies do exist in the literature, for unknown reasons. See, for example, the I50 values for BPP9a reported by Cushman, D. W., et al., Experientia 29, 1032 (1973) and by Dorer, F. E., et al., Biochim.Biophys.Acta 429, 220 (1976).
For most experiments described herein, the enzyme was assayed in 0.05M Hepes buffer, pH 8.0 containing 0.1M NaCl and 0.75M Na2 SO4. […]
The inhibitory potency of N^α-[ 3-(N^α -benzoylglycylthio)-2-D-L-proline in vitro was measured in the assay described in Example 1. […]

[2] = tested on: mean arterial blood pressure response to angiotensin I; assay: Intravenous effectiveness: blood pressure response to angiotensin I in anesthetized rats; type: in vivo, rat; details: i.v.; angiotensin I 400 ng/kg
Experimental: Rats (210-290 g body weight) were fasted overnight and then anesthetized with intraperitoneal pentobarbital, 50-60 mg/kg. Tracheostomy was performed and the animals were ventilated mechanically. A cannula was inserted into a femoral vein for injection of angiotensin I, and a second cannula was inserted into a common carotid artery for direct measurement of arterial blood pressure. Heparin, 1,000 units, was injected via the femoral vein to prevent coagulation. Blood pressure was measured with a pressure transducer connected to a polygraph. The rats were injected with […] of angiotensin I in 20 μl of 0.9 g % NaCl; an amount of angiotensin I sufficient to raise mean arterial blood pressure by 38 mm Hg. After the responsiveness of a given rat to angiotensin I was established, the named compound at 20 μmol/kg (drug dissolved in 0.15 ml of H2 O plus 10 μl of 1N NaHCO3), was given via a stomach tube. At timed intervals, the effects of 400 ng/kg of angiotensin I on mean arterial blood pressure were tested. Results are shown below:
Intravenous Effectiveness of N^α -[3-(N^α -benzoylglycylthio)-2-D-methylpropanoyl)-L-proline. Anesthetized rats were prepared as described in Example 20. The animals were administered the named compound via a femoral vein in 15 μl of 0.01 N sodium bicarbonate, after the control response to 400 ng/kg of angiotensin I was measured. […]

[3] = tested on: mean arterial blood pressure response to angiotensin I; assay: Oral effectiveness: blood pressure response to angiotensin I in anesthetized rats; type: in vivo, rat; details: angiotensin I 400 ng/ml in 20 μl of 0.9 g % NaCl (table: 400 ng/kg); control response before drug
Experimental: Rats (210-290 g body weight) were fasted overnight and then anesthetized with intraperitoneal pentobarbital, 50-60 mg/kg. Tracheostomy was performed and the animals were ventilated mechanically. A cannula was inserted into a femoral vein for injection of angiotensin I, and a second cannula was inserted into a common carotid artery for direct measurement of arterial blood pressure. Heparin, 1,000 units, was injected via the femoral vein to prevent coagulation. Blood pressure was measured with a pressure transducer connected to a polygraph. The rats were injected with 400 ng/ml of angiotensin I in 20 μl of 0.9 g % NaCl; an amount of angiotensin I sufficient to raise mean arterial blood pressure by 38 mm Hg. After the responsiveness of a given rat to angiotensin I was established, the named compound at 20 μmol/kg (drug dissolved in 0.15 ml of H2 O plus 10 μl of 1N NaHCO3), was given via a stomach tube. At timed intervals, the effects of 400 ng/kg of angiotensin I on mean arterial blood pressure were tested.

IC50 [1] [nM]	Compound	Blood pressure response to angiotensin I after intravenous administration (in words) [2]	Increase of mean arterial blood pressure by angiotensin I [3] [mm Hg]
7.5	C[C@H](CSC(=O)CNC(=O)c1ccccc1)C(=O)N1CCC[C@H]1C(=O)O [Example 13, N^α -[3-(N^Δ -benzoylglycylthio)-2-D-methylpropanoyl]-L-proline]	rapid decrease of blood pressure response to angiotensin I, 400 ng/kg followed by a gradual rise to the pretreatment level of responsiveness	–
–	angiotensin I: decapeptide angiotensin I, having the sequence AspArgValTyrlleHisProPheHisLeu (DRVYIHPFHL; Angiotensin-1; UniProt P01019 25-34, looked up)	–	38
